These results are taken from patent publication US20060079550A1, “Amino acid derivatives useful for the treatment of alzheimer's disease” (priority 2001, published 2006).

A word on the Ki: it is a measure of affinity in units of concentration, obtained from inhibition or displacement. Read a high Ki as a looser hold on the target.

The assay addresses aspartyl proteases, in particular, beta-secretase. In words: Ki of the compounds listed in Tables 1 and 2 (no method described). It counts as biochemical. The note with it: Table 1, compounds of formula Ia, W is -(CH2)n-.
As for `O=C(NCCCC[C@H](NS(=O)(=O)c1cccc2ccccc12)C(=O)O)OCC1c2ccccc2-c2ccccc21` [Compound No. 102, Nα-(1-naphthalenesulfonyl)-Nε-(9-fluorenylmethoxycarbonyl)-L-lysine], the Ki turned out to be 2.32 µM.

`Nc1ccc(S(=O)(=O)NCCC[C@H](NC(=O)OCC2c3ccccc3-c3ccccc32)C(=O)O)cc1` [Compound No. 69, Nδ-(4-aminobenzenesulfonyl)-Nα-(9-fluorenylmethoxycarbonyl)-L-ornithine]: the Ki worked out at 23.8 µM. This Ki is about 10-fold higher than that of the compound before.

For `Cc1ccc(S(=O)(=O)N(CC(C)C)C(CCCCNC(=O)OCC2c3ccccc3-c3ccccc32)C(N)=O)cc1` [Compound No. 125, (2R,2S)-N-isobutyl-N-(4-methylbenzenesulfonylamino)-6-(9-fluorenylmethoxycarboxylamino)-1-hexanamide], the Ki is 0.107 µM.

The compound `O=C(N[C@@H](CCCNS(=O)(=O)c1ccc([N+](=O)[O-])cc1)C(=O)O)OCC1c2ccccc2-c2ccccc21` [Compound No. 62, Nδ-(4-nitrobenzenesulfonyl)-Nα-(9-fluorenylmethoxycarbonyl)-L-ornithine] registered a Ki of 26.2 µM.

For the compound `COc1ccc(CCC(=O)NCCCC[C@@H](C(=O)O)N(CC(C)C)S(=O)(=O)c2ccc(N)cc2)cc1` [Compound No. 120, Nα-isobutyl-Nα-(4-aminobenzenesulfonyl)-Nε-(4-methoxydihydrocinnamoyl)-L-lysine], the Ki stood at 0.0124 µM.

`Cc1ccc(S(=O)(=O)N(CC(C)C)C(CCCCNC(=O)OCC2c3ccccc3-c3ccccc32)C(=O)O)cc1` (racemic) [Compound No. 2, Nα-isobutyl-Nα-(4-methylbenzenesulfonyl)-Nε-(9-fluorenylmethoxycarbonyl)-DL-lysine]: the Ki was found to be 0.005 µM. Against the preceding compound, the Ki is about 2.5-fold lower.

`O=C(O)[C@H](CCCN(Cc1ccc(F)cc1)S(=O)(=O)c1ccc(Br)cc1)NS(=O)(=O)c1ccc(Br)cc1` [Compound No. 59, Nα,Nδ-di-(4-bromobenzenesulfonyl)-Nδ-(4-fluorobenzyl)-L-ornithine] returned a Ki of over 34.9 µM.

For `CC(C)CN([C@@H](CCCCNC(=O)C=Cc1ccc([N+](=O)[O-])cc1)C(=O)O)S(=O)(=O)c1ccc([N+](=O)[O-])cc1` [Compound No. 111, Nα-isobutyl-Nα-(4-nitrobenzenesulfonyl)-Nε-(4-nitrocinnamoyl)-L-lysine], the Ki stood at 0.0344 µM.

`Cc1ccc(S(=O)(=O)N(CC(C)C)C(CCCCNC(=O)OCC2c3ccccc3-c3ccccc32)C(=O)NO)cc1` [Compound No. 141, (2R,2S)-N-isobutyl-N-(4-methylbenzenesulfonylamino)-6-(9-fluorenylmethoxycarboxylamino)-1-hydroxylhexamide] displayed a Ki of 0.245 µM.

For the compound `O=C(NCCCC[C@H](NS(=O)(=O)c1ccccc1[N+](=O)[O-])C(=O)O)OCC1c2ccccc2-c2ccccc21` [Compound No. 107, Nα-(2-nitrobenzenesulfonyl)-Nε-(9-fluorenylmethoxycarbonyl)-L-lysine], the affinity corresponds to a Ki of 3.97 µM.

`O=C(O)[C@H](CCCCN(Cc1ccc(F)cc1)S(=O)(=O)c1ccc(Br)cc1)NS(=O)(=O)c1ccc(Br)cc1` [Compound No. 60, Nα,Nε-di-(4-bromobenzenesulfonyl)-Nε-(4-fluorobenzyl)-L-lysine]: the Ki was over 50 µM.

Consider `Cc1ccc(S(=O)(=O)N(CC(C)C)[C@@H](CO)CCCCNC(=O)OCC2c3ccccc3-c3ccccc32)cc1` [Compound No. 124, (2R)-N-isobutyl-N-(4-methylbenzenesulfonylamino)-6-(9-fluorenylmethoxycarboxylamino)-1-hexanol], for which affinity was put at a Ki of 0.208 µM.

Turning to `O=C(NCCCC[C@H](NS(=O)(=O)c1ccccc1[N+](=O)[O-])C(=O)O)OCC1c2ccccc2-c2ccccc21` [Compound No. 70, Nα-(2-nitrobenzenesulfonyl)-Nε-(9-fluorenylmethoxycarbonyl)-L-lysine], the Ki was over 12.5 µM.

`O=C(N[C@@H](CCCCNS(=O)(=O)c1ccccc1Br)C(=O)O)OCC1c2ccccc2-c2ccccc21` [Compound No. 24, Nε-(2-bromobenzenesulfonyl)-Nα-(9-fluorenylmcthoxycarbonyl)-L-lysine] came in with a Ki of 36 µM. This counts as double-digit micromolar.

`O=C(N[C@@H](CCCCNS(=O)(=O)c1cccc2cccnc12)C(=O)O)OCC1c2ccccc2-c2ccccc21` [Compound No. 28, Nε-(8-quinolinesulfonyl)-Nα-(9-fluorenylmethoxycarbonyl)-L-lysine] yielded a Ki of 15 µM.

`CC(C)CN([C@@H](CCCCNC(=O)CCc1cccc(N)c1)C(=O)O)S(=O)(=O)c1ccc(N)cc1` [Compound No. 118, Nα-isobutyl-Nα-(4-aminobenzenesulfonyl)-Nε-(3-aminodihydrocinnamoyl)-L-lysine] came in with a Ki of 0.0205 µM.

For `CC(C)c1cc(C(C)C)c(S(=O)(=O)NCCCC[C@H](NC(=O)OCC2c3ccccc3-c3ccccc32)C(=O)O)c(C(C)C)c1` [Compound No. 25, Nε-(2,4,6-triisopropylbenzencsulfonyl)-Nα-(9-fluorenylmethoxycarbonyl)-L-lysine], the Ki is over 3.1 µM.

With `O=C(N[C@@H](CCCCNS(=O)(=O)Cc1ccccc1)C(=O)O)OCC1c2ccccc2-c2ccccc21` [Compound No. 33, Nε-phenylmethylsulfonyl-Nα-(9-fluorenylmethoxycarbonyl)-L-lysine], the Ki was 20 µM.

Compound `CC(C)CN(C(CCCCNC(=O)OCc1ccccc1)C(=O)O)S(=O)(=O)c1ccc(I)cc1` (racemic) [Compound No. 48, Nα-isobutyl-Nα-(4-iodobenzenesulfonyl)-Nε-benzyloxycarbonyl-DL-lysine] had a Ki of over 0.1 µM.

For the compound `COc1ccc(S(=O)(=O)N[C@@H](CCCCNC(=O)OCC2c3ccccc3-c3ccccc32)C(=O)O)cc1` [Compound No. 104, Nα-(4-methoxylbenzenesulfonyl)-Nε-(9-fluorenylmethoxycarbonyl)-L-lysine], the inhibitory constant (Ki) stood at 3.16 µM. In other words, the single-digit micromolar range.

Turning to `CC(C)CN([C@@H](CCCCNC(=O)CCCc1ccccc1)C(=O)O)S(=O)(=O)c1ccc(N)cc1` [Compound No. 121, Nα-isobutyl-Nα-(4-aminobenzenesulfonyl)-Nε-(4-phenylbutanoyl)-L-lysine], the Ki was over 0.3 µM.

Compound `Nc1ccc(S(=O)(=O)N[C@@H](CCCCNC(=O)OCC2c3ccccc3-c3ccccc32)C(=O)O)cc1` [Compound No. 106, Nα-(4-aminobenzenesulfonyl)-Nε-(9-fluorenylmethoxycarbonyl)-L-lysine] returned a Ki of 4.49 µM.

In turn, `NC(=O)C(CCCCNS(=O)(=O)c1ccc(Br)cc1)NC(=O)OCC1c2ccccc2-c2ccccc21` [Compound No. 20, (2R,2S)-(9-fluorenylmethoxycarbonylamino)-6-(4-bromobenzenesulfonylamino)-1-hexanamide] registered a Ki of 23 µM. This Ki is about 5.1-fold higher than that of the compound before.

`CC(C)CN(CCC[C@H](NC(=O)OCC1c2ccccc2-c2ccccc21)C(=O)O)S(=O)(=O)c1ccc(Br)cc1` [Compound No. 41, Nα-(9-fluorenylmethoxycarbonyl)-Nδ-isobutyl-Nδ-(4-bromobenzenesulfonyl)-L-ornithine]: the Ki is over 50 µM.

As to `CC(C)CN(C(CCCCNC(=O)C=Cc1ccccc1[N+](=O)[O-])C(=O)O)S(=O)(=O)c1ccc([N+](=O)[O-])cc1` [Compound No. 109, Nα-isobutyl-Nα-(4-nitrobeiizenesulfonyl)-Nε-(2-nitrocinnamoyl)-L-lysine], the Ki is over 0.3 µM.

In turn, `CC(C)CN([C@@H](CCCCNS(=O)(=O)c1ccc([N+](=O)[O-])cc1)C(=O)O)S(=O)(=O)c1ccc([N+](=O)[O-])cc1` [compound 116, Nα-isobutyl-Nα,Nε-di-(4-nitrobenzenesulfonyl)-L-lysine] showed a Ki of over 0.3 µM.

`Cc1ccc(S(=O)(=O)N(CC(C)C)C(CCCCN(CC(C)C)C(=O)CCc2ccccc2)C(=O)O)cc1` (racemic) [Compound No. 159, Nα,Nε-diisobutyl-Nα-(4-methylbenzenesulfonyl)-Nε-(3-phenylpropanoyl)-DL-lysine] gave a Ki of over 0.3 µM.

The compound `Cc1cc(C)c(S(=O)(=O)NCCCC[C@H](NC(=O)OCC2c3ccccc3-c3ccccc32)C(=O)O)c(C)c1` [Compound No. 27, Nε-(2,4,6-trimethylbenzenesulfonyl)-Nα-(9-fluorenylmethoxycarbonyl)-L-lysine] showed a Ki of over 50 µM.

Regarding `O=C(NCCCC[C@H](NC(=O)OCC1c2ccccc2-c2ccccc21)C(=O)O)OCC1c2ccccc2-c2ccccc21` [Compound No. 71, Nα,Nε-di-(9-fluorenylmethoxycarbonyl)-L-lysine], the inhibition constant (Ki) amounted to 44.8 µM.

The compound `O=C(N[C@@H](CCCCNS(=O)(=O)c1ccc(Br)cc1)C(=O)O)C(c1ccccc1)c1ccccc1` [Compound No. 36, Nα-(diphenylacetyl)-Nε-(4-bromobenzenesulfonyl)-L-lysine] showed a Ki of 24 µM.

`O=C(CC1c2ccccc2-c2ccccc21)N[C@@H](CCCCNS(=O)(=O)c1ccc(Br)cc1)C(=O)O` [Compound No. 30, Nα-(9-fluorenemethylcarbonyl)-Nε-(4-bromobenzenesulfonyl)-L-lysine] yielded a Ki of 71 µM.

The compound `Cc1ccc(S(=O)(=O)N(CC(C)C)C(CCCCNC(=S)CCc2ccccc2)C(=O)O)cc1` (racemic) [Compound No. 153, Nα-isobutyl-Nα-(4-methylbenzenesulfonyl)-Nε-dihydrothiocinnamoyi-DL-lysine] came in with a Ki of 0.151 µM.

Take `CC(C)CN(C(CCCCNC(=O)OCC1c2ccccc2-c2ccccc21)C(=O)O)S(=O)(=O)c1ccc(Cl)cc1` (racemic) [Compound No. 1, Nα-isobutyl-Nα-(4-chlorobenzenesulfonyl)-Nε-(9-fluorenylmethoxycarbonyl)-DL-lysine]: the Ki was determined as 0.0205 µM.

`O=C(N[C@@H](CCCCNS(=O)(=O)c1ccc(I)cc1)C(=O)O)OCC1c2ccccc2-c2ccccc21` [Compound No. 64, Nε-(4-iodobenzenesulfonyl)-Nα-(9-fluorenylmethoxycarbonyl)-L-lysine] displayed a Ki of 19.2 µM.

Compound `O=C(N[C@@H](CNS(=O)(=O)c1ccc(Br)cc1)C(=O)O)OCC1c2ccccc2-c2ccccc21` [Compound No. 18, (S)-2-(9-fluorenylmethoxycarbonylamino)-3-(4-bromobenzenesulfonylamino)-propanoic Acid] gave a Ki of 75 µM.

Regarding `Cc1ccc(S(=O)(=O)N(CC(C)C)[C@@H](CCCCNC(=O)c2c[nH]c3ccccc23)C(=O)O)cc1` [compound 87], the Ki is over 1.25 µM.
